Columns and labels:
[1] = tested on: Pseudomonas PAO1 strain (ATCC 15692); assay: Amount of biofilm formed (crystal violet, OD570), 96-well microplate culture; format: cell-based; settings: for inhibition at 5 ppm: final concentration 5 ppm; for inhibition at 9 ppm: final concentration 9 ppm; for inhibition at 18 ppm: final concentration 18 ppm; for inhibition at 27 ppm: final concentration 27 ppm; for inhibition at 32 ppm: final concentration 32 ppm; for inhibition at 37 ppm: final concentration 37 ppm; for inhibition at 22 ppm: final concentration 22 ppm; for inhibition at 44 ppm: final concentration 44 ppm
Procedure: Pseudomonas PAO1 strain (ATCC 15692) was subjected to stationary culture performed in LB culture medium (Lysogeny Broth; manufactured by Becton Dickinson) at 37° C. for 24 hours. The turbidity (OD600) of the culture solution was measured. The culture solution was diluted with Mueller Hinton Broth (BBL made) to prepare a suspension (15 mL) having a turbidity (OD600) of 1/10^6. […]
(§1) Growth inhibition rates relative to the control (ethanol alone) were calculated based on OD600 values measured and in accordance with the following expression. In addition, biofilm (BF) formation inhibition rates relative to the control (ethanol alone) were calculated based on OD570 values and in accordance with the following expression:
BF inhibition (%)={1−(compound addition group OD570/control group OD570)}×100
(§2) As a control, an ethanol solvent alone was used (EtOH control). The concentrations of test compounds in the ethanol solution were as follows: test compound 1: 20 mM, test compounds 2 to 7: 100 mM. To each of the wells of a 96-well microplate (351172; manufactured by Japan Becton Dickinson), 6 μL of DMSO (Tokyo Kasei) and an ethanol solution of each test compound (1 to 8 μL) were added and then the microplates were allowed to stand still at room temperature for 5 hours to evaporate ethanol. A suspension solution of a Pseudomonas microbe prepared in the same procedure as in Test Example 1, 1) was added in an amount of 145 μL per well and culture was initiated.
(§3) After the 96-well microplate was subjected to stationary culture at 30° C. for 24 hours, turbidity (OD600) was measured to check growth. Subsequently, individual wells were stained with 0.1% crystal violet and thoroughly washed twice with physiological saline. To each well, 200 μL of ethanol was added and the absorbance (OD570) was measured to obtain the amount of the biofilm formed. The growth inhibition rate and biofilm (BF) formation inhibition rate were calculated based on OD600 and OD570 values measured and in accordance with the expressions used in Test Example 2.

[2] = tested on: Pseudomonas PAO1 strain (ATCC 15692); assay: Growth of test microbe (turbidity OD600), 96-well microplate culture; format: cell-based; settings: for inhibition at 5 ppm: final concentration 5 ppm; for inhibition at 9 ppm: final concentration 9 ppm; for inhibition at 18 ppm: final concentration 18 ppm; for inhibition at 27 ppm: final concentration 27 ppm; for inhibition at 32 ppm: final concentration 32 ppm; for inhibition at 37 ppm: final concentration 37 ppm; for inhibition at 22 ppm: final concentration 22 ppm; for inhibition at 44 ppm: final concentration 44 ppm
Procedure: Pseudomonas PAO1 strain (ATCC 15692) was subjected to stationary culture performed in LB culture medium (Lysogeny Broth; manufactured by Becton Dickinson) at 37° C. for 24 hours. The turbidity (OD600) of the culture solution was measured. The culture solution was diluted with Mueller Hinton Broth (BBL made) to prepare a suspension (15 mL) having a turbidity (OD600) of 1/10^6.
To each of the wells of a 96-well microplate (351172; manufactured by Japan Becton Dickinson), 6 μL of DMSO (Tokyo Chemical Industry Co. Ltd) and an ethanol solution (1 μL, 3 μL or 5 μL) of a test compound were added. After that, the microplate was allowed to stand still at room temperature for 5 hours to evaporate ethanol. The suspension of Pseudomonas microbe prepared in the above step 1) was added in an amount of 145 μL per well and culture was initiated. As the test compound, 2-methylhydroquinone (Sigma Aldrich) and p-toluquinone (Tokyo Kasei) were used. As a reference compound, sodium hypochlorite (manufactured by Wako Pure Chemical Industries Ltd.) was used. As a control, an ethanol solvent (EtOH control) alone was used. The concentration of the test compound in the ethanol solution is 1,000 ppm or 10,000 ppm and the final concentration of the test compound in the culture solution was about from 7 to 333 ppm.
After the 96-well microplate was subjected to stationary culture performed at 30° C. for 24 hours, turbidity (OD600) was measured to check growth. Subsequently, individual wells were stained with 0.1% crystal violet and thoroughly washed twice with physiological saline. To each well, 200 μL of ethanol was added and the absorbance (OD570) was measured to obtain the amount of the biofilm formed.
Compounds listed in Table 3 were each added to a test microbe and culture was conducted by the same procedure as in Test Example 1 and the amount of growth (OD600) and the amount of biofilm formed (OD570) were measured. For compounds a, b, c, f, h, i, J and k, 20 mM ethanol solutions were prepared; whereas for compounds d, e, g, 5 mM ethanol solutions were prepared. The solutions were each added to a 96-well microplate in an amount of 1 to 8 μL and evaluation was made. The final concentrations of the individual compounds are described in Table 3.
as §1
Growth inhibition (%)=(1−(compound addition group OD600/control group OD600))×100
as §2, §3

[3] = Pseudomonas, read-out: BF inhibition (%)
[4] = high concentration range of 200 ppm or more

Cc1cc(O)cc(C)c1O [d, 2,6-Dimethylhydroquinone]
inhibition at 5 ppm [1, 3]: 12.7% | inhibition at 9 ppm [1, 3]: 11.2% | inhibition at 18 ppm [1, 3]: < 0% | inhibition at 27 ppm [1, 3]: 6.3% | inhibition at 32 ppm [1, 3]: 17.8% | inhibition at 37 ppm [1, 3]: 31.9% | inhibition at 5 ppm ([2]; Pseudomonas): < 0% | inhibition at 9 ppm ([2]; Pseudomonas): 6.3% | inhibition at 18 ppm ([2]; Pseudomonas): 0.8% | inhibition at 27 ppm ([2]; Pseudomonas): 6.6% | inhibition at 32 ppm ([2]; Pseudomonas): 14% | inhibition at 37 ppm ([2]; Pseudomonas): 5.4%

CC(C)(C)C1=CC(=O)C=CC1=O [k, tert-Butylbenzoquinone]
inhibition at 22 ppm [1, 3]: < 0% | inhibition at 44 ppm [1, 3]: < 0% | inhibition at 88 ppm ([1]; Pseudomonas, final concentration 88 ppm, read-out: BF inhibition (%)): < 0% | inhibition at 131 ppm ([1]; Pseudomonas, final concentration 131 ppm, read-out: BF inhibition (%)): < 0% | inhibition at 154 ppm ([1]; Pseudomonas, final concentration 154 ppm, read-out: BF inhibition (%)): 26.2% | inhibition at 175 ppm ([1]; Pseudomonas, final concentration 175 ppm, read-out: BF inhibition (%)): 30.3% | inhibition at 22 ppm ([2]; Pseudomonas): 8.9% | inhibition at 44 ppm ([2]; Pseudomonas): < 0% | inhibition at 88 ppm ([2]; Pseudomonas, final concentration 88 ppm): < 0% | inhibition at 131 ppm ([2]; Pseudomonas, final concentration 131 ppm): < 0% | inhibition at 154 ppm ([2]; Pseudomonas, final concentration 154 ppm): < 0% | inhibition at 175 ppm ([2]; Pseudomonas, final concentration 175 ppm): < 0%

Cc1cc(O)ccc1O [b, 2-Methylhydroquinone]
inhibition at 16 ppm ([1]; Pseudomonas, final concentration 16 ppm, read-out: BF inhibition (%)): 51.4% | inhibition at 33 ppm ([1]; Pseudomonas, final concentration 33 ppm, read-out: BF inhibition (%)): 42.5% | inhibition at 65 ppm ([1]; Pseudomonas, final concentration 65 ppm, read-out: BF inhibition (%)): 76.5% | inhibition at 98 ppm ([1]; Pseudomonas, final concentration 98 ppm, read-out: BF inhibition (%)): 87.3% | inhibition at 114 ppm ([1]; Pseudomonas, final concentration 114 ppm, read-out: BF inhibition (%)): 95.2% | inhibition at 130 ppm ([1]; Pseudomonas, final concentration 130 ppm, read-out: BF inhibition (%)): 96.2% | The amount of the biofilm formed OD570 ([1]; final concentration 7 ppm, EtOH control 0.9163): 0.7615 | The amount of the biofilm formed OD570 ([1]; final concentration 20 ppm, EtOH control 0.9564): 0.7848 | The amount of the biofilm formed OD570 ([1]; final concentration 33 ppm, EtOH control 0.8974): 0.739 | The amount of the biofilm formed OD570 ([1]; final concentration 67 ppm, EtOH control 0.8853): 0.5875 | The amount of the biofilm formed OD570 ([1]; final concentration 200 ppm, EtOH control 0.9248): 0.0566 | The amount of the biofilm formed OD570 ([1]; final concentration 333 ppm, EtOH control 0.9562): 0.0744 | biofilm formation (in words) [1, 4]: inhibited | biofilm formation (in words) ([1]; low concentration range of less than 200 ppm): inhibited | inhibition at 16 ppm ([2]; Pseudomonas, final concentration 16 ppm): 31.2% | inhibition at 33 ppm ([2]; Pseudomonas, final concentration 33 ppm): < 0% | inhibition at 65 ppm ([2]; Pseudomonas, final concentration 65 ppm): 4% | inhibition at 98 ppm ([2]; Pseudomonas, final concentration 98 ppm): < 0% | inhibition at 114 ppm ([2]; Pseudomonas, final concentration 114 ppm): 1.5% | inhibition at 130 ppm ([2]; Pseudomonas, final concentration 130 ppm): 0% | Growth OD600 ([2]; final concentration 7 ppm, EtOH control 0.5913): 0.6114 | Growth OD600 ([2]; final concentration 20 ppm, EtOH control 0.6346): 0.6276 | Growth OD600 ([2]; final concentration 33 ppm, EtOH control 0.668): 0.6291 | Growth OD600 ([2]; final concentration 67 ppm, EtOH control 0.628): 0.471 | Growth OD600 ([2]; final concentration 200 ppm, EtOH control 0.6045): 0.3373 | Growth OD600 ([2]; final concentration 333 ppm, EtOH control 0.6088): 0.4302 | microbial growth (in words) [2, 4]: inhibited

CCCCc1cc(O)ccc1O [j, 2-Butylhydroquinone]
inhibition at 22 ppm [1, 3]: 16.3% | inhibition at 44 ppm [1, 3]: 14.1% | inhibition at 89 ppm ([1]; Pseudomonas, final concentration 89 ppm, read-out: BF inhibition (%)): 42.1% | inhibition at 133 ppm ([1]; Pseudomonas, final concentration 133 ppm, read-out: BF inhibition (%)): 57.3% | inhibition at 155 ppm ([1]; Pseudomonas, final concentration 155 ppm, read-out: BF inhibition (%)): 63.9% | inhibition at 177 ppm ([1]; Pseudomonas, final concentration 177 ppm, read-out: BF inhibition (%)): 75.4% | inhibition at 22 ppm ([2]; Pseudomonas): 8.5% | inhibition at 44 ppm ([2]; Pseudomonas): < 0% | inhibition at 89 ppm ([2]; Pseudomonas, final concentration 89 ppm): 0.8% | inhibition at 133 ppm ([2]; Pseudomonas, final concentration 133 ppm): < 0% | inhibition at 155 ppm ([2]; Pseudomonas, final concentration 155 ppm): < 0% | inhibition at 177 ppm ([2]; Pseudomonas, final concentration 177 ppm): < 0%

Oc1ccc(O)c(O)c1 [h, Hydroxyhydroquinone]
inhibition at 17 ppm ([1]; Pseudomonas, final concentration 17 ppm, read-out: BF inhibition (%)): 78.2% | inhibition at 34 ppm ([1]; Pseudomonas, final concentration 34 ppm, read-out: BF inhibition (%)): 96.2% | inhibition at 67 ppm ([1]; Pseudomonas, final concentration 67 ppm, read-out: BF inhibition (%)): 96.1% | inhibition at 101 ppm ([1]; Pseudomonas, final concentration 101 ppm, read-out: BF inhibition (%)): 96.3% | inhibition at 118 ppm ([1]; Pseudomonas, final concentration 118 ppm, read-out: BF inhibition (%)): 96.3% | inhibition at 134 ppm ([1]; Pseudomonas, final concentration 134 ppm, read-out: BF inhibition (%)): 96.4% | inhibition at 17 ppm ([2]; Pseudomonas, final concentration 17 ppm): 46.2% | inhibition at 34 ppm ([2]; Pseudomonas, final concentration 34 ppm): 18% | inhibition at 67 ppm ([2]; Pseudomonas, final concentration 67 ppm): 7.2% | inhibition at 101 ppm ([2]; Pseudomonas, final concentration 101 ppm): 1.7% | inhibition at 118 ppm ([2]; Pseudomonas, final concentration 118 ppm): 2% | inhibition at 134 ppm ([2]; Pseudomonas, final concentration 134 ppm): 5.4%

Cc1c(O)ccc(O)c1C [e, 2,3-Dimethylhydroquinone]
inhibition at 5 ppm [1, 3]: < 0% | inhibition at 9 ppm [1, 3]: < 0% | inhibition at 18 ppm [1, 3]: < 0% | inhibition at 27 ppm [1, 3]: 2.4% | inhibition at 32 ppm [1, 3]: 17.8% | inhibition at 37 ppm [1, 3]: 31.1% | inhibition at 5 ppm ([2]; Pseudomonas): < 0% | inhibition at 9 ppm ([2]; Pseudomonas): 13.1% | inhibition at 18 ppm ([2]; Pseudomonas): 0.8% | inhibition at 27 ppm ([2]; Pseudomonas): < 0% | inhibition at 32 ppm ([2]; Pseudomonas): 14% | inhibition at 37 ppm ([2]; Pseudomonas): 5.4%

Cc1c(O)cccc1O [Compound 6, 2-Methylresorcinol]
inhibition at 83 ppm ([1]; Pseudomonas, Test Example 3, final concentration 83 ppm, read-out: BF inhibition (%)): < 0% | inhibition at 165 ppm ([1]; Pseudomonas, Test Example 3, final concentration 165 ppm, read-out: BF inhibition (%)): < 0% | inhibition at 331 ppm ([1]; Pseudomonas, Test Example 3, final concentration 331 ppm, read-out: BF inhibition (%)): < 0% | inhibition at 496 ppm ([1]; Pseudomonas, Test Example 3, final concentration 496 ppm, read-out: BF inhibition (%)): 53% | inhibition at 579 ppm ([1]; Pseudomonas, Test Example 3, final concentration 579 ppm, read-out: BF inhibition (%)): 52.2% | inhibition at 661 ppm ([1]; Pseudomonas, Test Example 3, final concentration 661 ppm, read-out: BF inhibition (%)): 56.3% | inhibition at 83 ppm ([2]; Pseudomonas, Test Example 3, final concentration 83 ppm): < 0% | inhibition at 165 ppm ([2]; Pseudomonas, Test Example 3, final concentration 165 ppm): 5.2% | inhibition at 331 ppm ([2]; Pseudomonas, Test Example 3, final concentration 331 ppm): < 0% | inhibition at 496 ppm ([2]; Pseudomonas, Test Example 3, final concentration 496 ppm): 12.3% | inhibition at 579 ppm ([2]; Pseudomonas, Test Example 3, final concentration 579 ppm): 20% | inhibition at 661 ppm ([2]; Pseudomonas, Test Example 3, final concentration 661 ppm): 13.3%

— US20190124918A1, “BIOFILM FORMATION INHIBITOR AND BIOFILM FORMATION INHIBITING COMPOSITION” (KAO CORPORATION, priority 2016, published 2019)
